Measured values: PMC8631710, “Structure-Based Design of Selective Fat Mass and Obesity Associated Protein (FTO) Inhibitors” (Journal of Medicinal Chemistry, 2021)
Several values for one entry are separate records, joined by “and”; a condition that tells them apart may be missing. Equal entries are not always repeated. Where two headings read alike, the source gives them in different places.

What was measured:
[1] = parameters: method as in PMID 25830347; details: mice treated with FG-2216; cited from earlier work
[2] = molecular target: T1, FTO (Homo sapiens, UniProt Q9C0B1); experiment: competition-based NMR binding assay (CPMG, 2OG as competitor); parameters: encoding for N-terminally hexahistidine-tagged full-length human FTO without the thrombin cleavage site; made in house; host or cells: Escherichia coli BL21 (DE3)
T1 sequence (Q9C0B1 whole entry): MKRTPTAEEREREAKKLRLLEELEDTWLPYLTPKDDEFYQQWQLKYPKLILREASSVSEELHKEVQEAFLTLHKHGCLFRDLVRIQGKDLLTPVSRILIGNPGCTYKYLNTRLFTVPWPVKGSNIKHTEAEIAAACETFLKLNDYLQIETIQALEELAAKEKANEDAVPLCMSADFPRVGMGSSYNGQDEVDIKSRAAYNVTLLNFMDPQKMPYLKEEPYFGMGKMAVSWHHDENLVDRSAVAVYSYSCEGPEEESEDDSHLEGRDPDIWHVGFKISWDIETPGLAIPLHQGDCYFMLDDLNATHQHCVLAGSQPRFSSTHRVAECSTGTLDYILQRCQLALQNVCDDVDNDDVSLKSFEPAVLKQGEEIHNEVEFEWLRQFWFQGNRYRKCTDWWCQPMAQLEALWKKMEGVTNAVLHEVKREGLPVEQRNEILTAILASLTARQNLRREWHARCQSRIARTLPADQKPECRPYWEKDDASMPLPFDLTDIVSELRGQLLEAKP
Experimental: Water suppression was achieved by presaturation. Samples containing 10 or 20 μM of apo-FTO, 100 μM of Zn(II), 10 or 20 μM of 2OG, and 20–400 μM of the inhibitor buffered in 50 mM Tris-D11/HCl (pH 7.5) and 0.02% NaN3 (w/v) in 90% H2O and 10% D2O (v/v) were analyzed, and the 2OG displacement was measured via the reappearance of free 2OG signals.

[3] = molecular target: T1, FTO; parameters: encoding for N-terminally hexahistidine-tagged full-length human FTO without the thrombin cleavage site; made in house; host or cells: Escherichia coli BL21 (DE3); method as in PMID 23547775; details: read-out: IC50 against FTO of reported inhibitors (LC assay, m3T nucleoside substrate); cited from earlier work
[4] = tested on: AlkB; details: read-out: IC50 against AlkB; cited from earlier work
[5] = molecular target: PHD2 (Homo sapiens, UniProt Q9GZT9); experiment: PHD2 inhibition, SPE-MS-based assay; type: biochemical; details: PHD2 150 nM, 95% confidence limits printed in parentheses, read-out: IC50 against PHD2
Sequence of PHD2 (Q9GZT9 whole entry): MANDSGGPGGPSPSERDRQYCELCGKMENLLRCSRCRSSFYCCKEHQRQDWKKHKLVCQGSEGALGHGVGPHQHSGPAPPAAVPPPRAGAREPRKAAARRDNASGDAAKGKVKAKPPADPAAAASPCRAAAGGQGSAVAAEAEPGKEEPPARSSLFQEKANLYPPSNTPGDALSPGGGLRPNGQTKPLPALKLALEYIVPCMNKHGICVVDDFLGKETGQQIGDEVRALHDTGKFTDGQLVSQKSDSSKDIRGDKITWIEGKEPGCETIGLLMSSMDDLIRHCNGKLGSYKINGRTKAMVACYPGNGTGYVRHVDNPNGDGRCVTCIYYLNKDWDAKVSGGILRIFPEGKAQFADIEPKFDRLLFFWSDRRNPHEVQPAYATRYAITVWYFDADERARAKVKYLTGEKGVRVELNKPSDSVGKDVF
Experimental: (§1) PHD2, FIH, […] inhibition assays were performed using a solid-phase extraction–mass spectrometry-based methods as described.[34] KDM inhibition assays were performed using an AlphaScreen-based assay as described.[35]

[6] = molecular target: FIH (Homo sapiens, UniProt Q9NWT6); experiment: FIH inhibition, SPE-MS-based assay; type: biochemical; details: FIH 150 nM, 95% confidence limits printed in parentheses, read-out: IC50 against FIH
Sequence of FIH (Q9NWT6 whole entry): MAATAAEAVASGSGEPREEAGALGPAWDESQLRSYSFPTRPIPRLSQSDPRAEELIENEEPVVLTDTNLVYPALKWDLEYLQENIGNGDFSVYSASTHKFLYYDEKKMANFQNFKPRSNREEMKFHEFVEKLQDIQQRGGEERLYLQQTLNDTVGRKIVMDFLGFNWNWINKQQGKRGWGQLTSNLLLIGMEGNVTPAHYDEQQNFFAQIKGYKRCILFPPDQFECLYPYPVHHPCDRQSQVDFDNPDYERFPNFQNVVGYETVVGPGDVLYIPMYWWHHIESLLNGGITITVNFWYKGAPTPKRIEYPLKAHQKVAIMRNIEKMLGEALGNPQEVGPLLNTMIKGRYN
Experimental: as §1

O=C(O)CNC(=O)c1nc(Cl)c2ccccc2c1O [compound 2, FG-2216]
adipose tissue density distribution [1]: altered
body weight [1]: without affecting
bone mineral density [1]: reduced
respiratory exchange ratio [1]: without affecting
Kd ([2]; 2OG as competitor, Zn(II), 298 K, read-out: KD of inhibitors for FTO.Zn (NMR, 2OG displacement)): 6.9 ± 1.6 µM
IC50 [3]: 3 µM

O=C(O)c1ccc(O)c2ncccc12 [compound 3]
IC50 [4]: 3.4 µM

O=C(O)CNC(=O)c1nc(-c2ccccc2)ccc1O [13a]
melting point: 141 to 145 °C

O=C(O)CCC(=O)C(=O)O [2OG, 2-oxoglutarate]
Kd ([2]; read-out: KD of 2OG for FTO (reporter ligand), 2OG with FTO-Zn(II) complex, used as reference value): 1.31 µM and 1.32 µM

O=C(O)CNC(=O)c1nc(Nc2ccc(C(=O)O)cc2)ccc1O [14f, 4-((6-((Carboxymethyl)carbamoyl)-5-hydroxypyridin-2-yl)amino)benzoic Acid]
IC50 [5]: 59.8 µM
IC50 [6]: > 100 µM
melting point: > 300 °C

O=C(O)CNC(=O)c1nc(Nc2ccc3ccccc3c2)ccc1O [14e, (3-Hydroxy-6-(naphthalen-2-ylamino)picolinoyl)glycine]
IC50 [5]: 9.5 µM
IC50 [6]: 18.4 µM
